This note sets out measurements from patent US6664372B1, “Azatide peptidomimetics” (The Scripps Research Institute, priority 1996, dated 2003).

This experiment has as its system anti-β-endorphin monoclonal antibody 3-E7 (IgG 3-E7). The experiment in a line: Azatide (16) competition ELISA for anti-β-endorphin monoclonal antibody. It counts as binding, mouse. The following applies: at 1 mM, plate coated with Tyr-Gly-Gly-Phe-Leu-BSA conjugate.

Starred links: 1 amine or outer side, 2 acyl side, 3 side chain; linkers in the order of their positions; H or OH if unused. Non-standard residues stand in square brackets, D forms with d. No end group written: not given here. azaTyr = O=C(N(Cc1ccc(O)cc1)N[*:1])[*:2]; azaPhe = O=C(N(Cc1ccccc1)N[*:1])[*:2]; azaLeu = CC(C)CN(N[*:1])C(=O)[*:2]; azaGly = NNC(=O)O

With “Tyr^a-Gly^a-Gly^a-Phe^a-Leu^a.2CP3COOH ([azaTyr][azaGly][azaGly][azaPhe][azaLeu]; also: salt/adduct .2CP3COOH) [compound 16, Leu-enkephalin azatide mimetic; every α-carbon replaced by nitrogen]”, the “competition with the natural peptide for 3-E7 (competition ELISA)” value is recorded as “non-ligand”. Also, the “competition with the natural peptide for 3-E7 (competition ELISA)” value (listed as azatide pentamer) was “no propensity to compete”.
